Earlier results in patent US5807979A, “Synthetic, three-dimensionally stabilized polypeptide mimics of HIV” (The Scripps Research Institute, priority 1995, dated 1998).

Assays:
[1] = fraction of the activity of parent EGF; cited from earlier work
malaria = conditions: tested in humans; cited from earlier work

## active fragment of epidermal growth factor (EGF), comprising amino acids 20-31: active fragment of epidermal growth factor (EGF), comprising amino acids 20-31 (CMYIEALDKYAC; Epidermal growth factor; UniProt P01133 990-1001, looked up, fragment)
[1]
  activity relative to that of the parent molecule: about 10^-4

## (Asn-Ala-Asn-Pro)3
malaria
  effectiveness of vaccine in humans: only partially effective
